The subject of data set [1] is stomach ulcer model induced by NSAIDs. Kind of data set: Stomach ulcer induced by NSAIDs in rats, lyophilized NSAID and trehalose vs NSAID alone (Working Example 1). It is filed as in vivo, rat. The note with it: trehalose 800 mg/kg, oral, 5 hours, average±standard deviation. As to the method: Each of the test substances were adjusted by suspending or dissolving them into 0.5% CMC.Na solution. Each of 9 mL of Liquid doses was given per 1 kg weight by oral dose. 0.5% CMC.Na solutions were given to control group.
(§1) We bought Winster male rats (Japan SLC) that were 8 weeks old. We breed these rats keeping 20 to 26 degrees C., humidity of 30 to 70%, housing 2 to 3 rats in a rat breeding gage (mouse and rat breeding CE-2), giving enough amount of filtered tap water. After breeding 7 days, 5 to 10 rats per group were picked to execute the example. The rats were fasting for 24 hours without giving no food and then the rats were fed no food and no water for 1 hour just before the examination.
From 11 am on the previous day of the examination date, the rats were kept fasting and test substances were fed though mouse. After 5 hours passed, these rats were killed by carbon dioxide gas and stomachs were picked up. The duodenums were tagged. 6 mL of neutral formalin was poured from the esophagi so as to fix the stomachs for 30 minutes. The stomachs were cut along with the greater curvature. The cut stomachs were gently washed by saline, the presence of blood spot were observed by a stereoscopic microscope. The area of blood spots was measured by 0.5 mm×0.5 mm unit as an index of ulcer and the sum of each animal was calculated. The rate of suppressed ulcer was calculated, using the ulcer index for the group in which each of test sample was given and the group in which trehalose was also given, in accordance with the following equation.
(§2) Rate of suppressed ulcer(%)=[1−A/B]×100 • […]

Data set [2] deals with gastric mucosal disorder (ulcer) induced by NSAIDs. As to the kind of experiment: Gastric mucosal disorder in rats: NSAID alone, mixture with trehalose, lyophilized with trehalose (Working Example 2). It is filed as in vivo. To be noted: rat, oral, 5 hours, trehalose 800 mg/kg. How it is done: The liquid doses were prepared on the date when the examination was executed. Weighted NSAIDs were suspended or dissolved into 0.5% CMC.Na solution to prepare doses of administrating NSAIDs only. Suspension of NSAIDs and solution of trehalose were prepared. […] For each groups the amount of dose was 8 mL per kg or rat.
as §1
From 11 am on the previous day of the examination date, the rats were kept fasting and test substances were fed though mouse. After 5 hours passed, these rats were killed by carbon dioxide gas and stomachs were picked up. The duodenums were tagged. 6 mL of neutral formalin were poured from the esophagi so as to fix the stomachs for 30 minutes. The stomachs were cut along with the greater curvature. The cut stomachs were gently washed by saline, the presence of blood spot were observed by a stereoscopic microscope.
The area of blood spots was measured by 0.5 mm×0.5 mm unit as an index of ulcer and the sum of each animals was calculated. The rate of suppressed ulcer was calculated, using the ulcer index for the group in which each of test samples were given and the group in which trehalose was also given, in accordance with the following equation.
as §2

On to `CC(=O)Oc1ccccc1C(=O)O` [Aspirin alone, aspirin], for which the “ulcer (area of blood spots, ulcer index)” value in data set [1] (stomach ulcer model induced by aspirin, aspirin 200 mg/kg) was determined as 10.40±2.80 mm^2. The “Ulcer index (mm^2, average ± standard deviation)” value in data set [2] (aspirin 200 mg/kg) was 10.40 ± 2.73 mm^2; in data set [2] (aspirin 200 mg/kg, listed as aspirin alone), 10.40±2.73 mm^2.

In the case of `O=C(O)Cc1ccccc1Nc1c(Cl)cccc1Cl` [Diclofenac alone, sodium diclofenac], in data set [1] (stomach ulcer model induced by diclofenac, diclofenac 40 mg/kg), the “ulcer (area of blood spots, ulcer index)” value is on record as 4.30±0.71 mm^2. Besides, the “Ulcer index (mm^2, average ± standard deviation)” value in data set [2] (diclofenac 40 mg/kg) came out at 4.30 ± 0.71 mm^2; in data set [2] (diclofenac 40 mg/kg, listed as diclofenac alone) it was 4.30±0.71 mm^2.

Turning to `COc1ccc2c(c1)c(CC(=O)O)c(C)n2C(=O)c1ccc(Cl)cc1` [Indomethacin alone, indomethacin], the “ulcer (area of blood spots, ulcer index)” value in data set [1] (stomach ulcer model induced by indomethacin, indomethacin 30 mg/kg) is recorded as 4.83±0.90 mm^2. Moreover, the “Ulcer index (mm^2, average ± standard deviation)” value is listed as 4.83 ± 0.90 mm^2 in data set [2] (indomethacin 30 mg/kg) and 4.83±0.90 mm^2 in data set [2] (indomethacin 30 mg/kg, listed as indomethacin alone).

Regarding `CC(C)Cc1ccc(C(C)C(=O)O)cc1` (stereo not shown) [ibuprofen alone, ibuprofen], the “ulcer (area of blood spots, ulcer index)” value in data set [1] (stomach ulcer model induced by ibuprofen, ibuprofen 400 mg/kg) is recorded as 5.35±1.86 mm^2.

Values taken from patent US20110301116A1, “NSAIDS-INDUCED GASTROINTESTINAL MUCOSAL DISORDER ALLEVIATOR AND MANUFACTURING METHOD THEREOF” (THE UNIVERSITY OF TOKYO, priority 2008, published 2011).
